In US9765037B2, “Compositions and methods for treating toxoplasmosis, cryptosporidiosis, and other apicomplexan protozoan related diseases” (University of Washington Through its Center for …, priority 2010, dated 2017):
≈ marks a conversion by molar mass, not a printed value. Read-outs that look alike come from different tables or passages of the source.

Columns and labels:
CpCDPK1 = CpCDPK1 (Cryptosporidium parvum (strain Iowa II), UniProt A3FQ16); experiment: biochemical; type: biochemical
SrcKD = SrcKD (Homo sapiens (Human), UniProt P12931); experiment: Tyrosine kinase IC50, SrcKD; type: biochemical
SRC = SRC (Homo sapiens (Human), UniProt P12931); conditions: for IC50: read-out: IC50 (μM) Src
glioma derived (SF539) [1] = experiment: Growth inhibition of human cell line SF539; conditions: for GI50: read-out: GI50 (μM) SF539
[2] = tested on: human promyelocytic leukemia (HL-60); experiment: Growth inhibition of human cell line HL-60; conditions: for GI50: read-out: GI50 (μM) HL60
[3] = tested on: human lymphocyte (CRL8155); experiment: Growth inhibition of human cell line CRL8155; conditions: for GI50: read-out: GI50 (μM) CRL8155
[4] = tested on: colorectal carcinoma (HC 2998); experiment: Growth inhibition of human cell line HC 2998; conditions: for GI50: read-out: GI50 (μM) HCC2998
ABL = ABL (Homo sapiens (Human), UniProt P00519); type: biochemical
AblKD = AblKD (Homo sapiens (Human), UniProt P00519); experiment: Tyrosine kinase IC50, AblKD; type: biochemical; conditions: Table 9
HckKD = HckKD (Homo sapiens (Human), UniProt P08631); experiment: Tyrosine kinase IC50, HckKD; type: biochemical; conditions: Table 9
PfCDPK4 = PfCDPK4 (Plasmodium falciparum (isolate 3D7), UniProt Q8IBS5); experiment: biochemical
PfCDPK1 = PfCDPK1 (Plasmodium falciparum (isolate 3D7), UniProt P62344); experiment: biochemical
in vivo = conditions: mouse, ip
Src3D = Src3D (Homo sapiens (Human), UniProt P12931); experiment: biochemical
[5] = Blood levels after oral gavage dosing of mice (LC-MS); conditions: for AUC / Cmax / Tmax / concentration at 17 h: mouse, po; for Blood level, First Peak / Blood level, Fourth D4 Peak / Blood level, First Trough: mice, 40 mg/kg oral gavage 3x daily for 4 days, mean±SD, N=3; for Blood level, First Peak: 1 hr after first dose; for Blood level, Fourth D4 Peak: 1 hr after third dose of d4; for Blood level, First Trough: 17 hours after dosing, beginning of d2; for concentration at 17 h: 40 mg/kg
[6] = tested on: P. berghei expressing PfCDPK4-2x-myc; experiment: Exflagellation in blood of treated mice infected with P. berghei expressing PfCDPK4-2x-myc; type: in vivo, Plasmodium berghei
[7] = Solubility in buffers of various pH; type: physicochemical; conditions: buffer
C. parvum = experiment: Immunosuppressed (SCID-beige) mouse C. parvum model; type: in vivo, Cryptosporidium parvum; conditions: SCID-beige mice; oral gavage once a day, days 3-7 and 10-14; 29 and 150 at 50 mg/kg/day, Paromomycin 2 g/kg/day
Description: Shown are mean of the parasite numbers detected in 25 mg of stool from each mouse, by qRT-PCR.

[8] = mouse, in vivo, ip, 50 mg/kg
[9] = tested on: P. berghei expressing GFP; experiment: P. berghei transmission from treated mice to A. stephensi; conditions: for formation of oocysts in A. stephensi fed on treated mice: mice treated i.p., Compound 29 at 10 mg/kg, mosquitoes fed 30 minutes after dosing
human fibroblast = experiment: Human fibroblast replication / cytotoxicity (Alamar blue); type: cell-based
glioma derived (SF539) [10] = conditions: human
Abl3D = Abl3D (Homo sapiens, UniProt P00519); experiment: Tyrosine kinase IC50, Abl3D; type: biochemical; conditions: Table 9
[11] = Table 8, read-out: IC50 (μM) CpCDPK1
[12] = pH 6.5, aqueous buffer, read-out: Experimental Solubility pH 6.5

SMILES: CC(C)(C)n1nc(-c2cccc3ccccc23)c2c(N)ncnc21 [Compound 1, 1-tert-butyl-3-(naphthalen-1-yl)-1H-pyrazolo[3,4-d]pyrimidin-4-amine]
- IC50 (CpCDPK1; read-out: IC50 (μM) CpCDPK1): > 3 µM
- IC50 (SrcKD): 1.3 µM
- inhibition of SRC (in words) (SRC): do not potently inhibit
- IC50 (SRC): 1.3 µM
- GI50 (glioma derived (SF539) [1]; human cell line SF539): > 10 µM
- GI50 ([2]; human cell line HL60): > 10 µM
- GI50 ([3]; human cell line CRL8155): > 10 µM
- GI50 ([4]; human cell line HCC2998): > 10 µM

SMILES: Nc1ncnc2c1c(Cc1cccc3ccccc13)nn2CC1CCNCC1 [Compound 5h, 3-(naphthalen-1-ylmethyl)-1-(piperidin-4-ylmethyl)-1H-pyrazolo[3,4-d]pyrimidin-4-amine]
- IC50 (ABL): > 20 µM
- IC50 (SrcKD; Table 9): > 20 µM
- IC50 (AblKD): > 20 µM
- IC50 (HckKD): > 10 µM
- EC50 (PfCDPK4): 154 nM
- IC50 (SRC): > 20 µM
- Cell Toxicity SF539, % at 10 μM (glioma derived (SF539) [1]): <30% at 10 μM
- GI50 (glioma derived (SF539) [1]; human cell line SF539): > 10 µM
- Cell Toxicity HL60, % at 10 μM [2]: <30% at 10 μM
- GI50 ([2]; human cell line HL60): > 10 µM
- Cell Toxicity CRL8155, % at 10 μM [3]: <30% at 10 μM
- GI50 ([3]; human cell line CRL8155): > 10 µM
- Cell Toxicity HCC2998, % at 10 μM [4]: <30% at 10 μM
- GI50 ([4]; human cell line HCC2998): > 10 µM

SMILES: COc1ccc2cc(-c3nn(C(C)C)c4ncnc(N)c34)ccc2c1 [Compound 7q, 1-isopropyl-3-(6-methoxynaphthalen-2-yl)-1H-pyrazolo[3,4-d]pyrimidin-4-amine]
- IC50 (CpCDPK1; read-out: IC50 (μM) CpCDPK1): 0.005 µM
- IC50 (SrcKD): 0.77 µM
- IC50 (HckKD): 0.375 µM
- EC50 (PfCDPK1): 208 nM
- EC50 (PfCDPK4): 41.4 nM
- IC50 (SRC): 0.77 µM
- AUC (in vivo): 4.6 µM·h
- Cmax (in vivo): 3800 nM
- Tmax (in vivo): 0.5 h
- IC50 (Src3D): 576 nM
- Cell Toxicity SF539, % at 10 μM (glioma derived (SF539) [1]): <30% at 10 μM
- GI50 (glioma derived (SF539) [1]): > 10 µM
- Cell Toxicity HL60, % at 10 μM [2]: <30% at 10 μM
- GI50 [2]: > 10 µM
- Cell Toxicity CRL8155, % at 10 μM [3]: <30% at 10 μM
- GI50 [3]: > 10 µM
- Cell Toxicity HCC2998, % at 10 μM [4]: <30% at 10 μM
- GI50 [4]: > 10 µM
- AUC ([5]; in vivo): 35.3 µM·h
- Cmax ([5]; in vivo): 19700 nM
- Tmax ([5]; in vivo): 0.5 h

SMILES: CC(C)n1nc(-c2cc3ccccc3[nH]2)c2c(N)ncnc21 [Compound 24, 3-(1H-indol-2-yl)-1-isopropyl-1H-pyrazolo[3,4-d]pyrimidin-4-amine]
- IC50 (CpCDPK1; [11]): 0.0704 µM
- EC50 (PfCDPK1): 471 nM
- EC50 (PfCDPK4): 337 nM
- IC50 (Src3D): 1450 nM

SMILES: CC(C)n1nc(-c2cc3c(Cl)cccc3[nH]2)c2c(N)ncnc21 [Compound 26, 3-(4-chloro-1H-indol-2-yl)-1-isopropyl-1H-pyrazolo[3,4-d]pyrimidin-4-amine]
- IC50 (CpCDPK1; [11]): 0.0162 µM
- EC50 (PfCDPK4): 544 nM
- IC50 (Src3D): 1240 nM
- Cell Toxicity HL60, % at 10 μM [2]: 45% toxicity at
- Cell Toxicity CRL8155, % at 10 μM [3]: 38% toxicity at

SMILES: CCOc1ccc2cc(-c3nn(CC4CCNCC4)c4ncnc(N)c34)ccc2c1 [Compound 29, 3-(6-ethoxynaphthalen-2-yl)-1-(piperidin-4-ylmethyl)-1H-pyrazolo[3,4-d]pyrimidin-4-amine]
- IC50 (CpCDPK1; [11]): 0.0035 µM
- IC50 (CpCDPK1; read-out: Enzymatic Assay IC50 CpCDPK1): 0.001 µM
- IC50 (SrcKD; Table 9): > 20 µM
- IC50 (AblKD): > 20 µM
- IC50 (HckKD): > 10 µM
- EC50 (PfCDPK1): 353 nM
- exflagellation 20 hours after dosing ([6]; 50 mg/kg i.p.): some exflagellation was observed
- exflagellation in blood samples from treated mice ([6]; 50 mg/kg i.p., 30 minutes post-injection and up to 14 hours later): completely suppressed exflagellation
- exflagellation in treated mice ([6]; mice, 10 mg/kg i.p.): sufficient to block exflagellation
- duration of complete suppression of exflagellation ([6]; mice, 50 mg/kg i.p.): 14 h
- solubility ([7]; aqueous buffer, pH 2.0, read-out: Experimental Solubility pH 2.0): 34 µM (≈ 13.7 µg/mL)
- solubility [7, 12]: 47 µM (≈ 18.9 µg/mL)
- solubility ([7]; pH 7.4, aqueous buffer, read-out: Experimental Solubility pH 7.4): 49 µM (≈ 19.7 µg/mL)
- parasite burden rebound after treatment (C. parvum): slowly
- parasites in stool (qRT-PCR) at the end of treatment (C. parvum): not detected
- peak plasma concentration [8]: 8.2 µM
- plasma levels for 20 hours post-treatment [8]: exceeding 0.4 μM
- AUC (in vivo; 10 mg/kg): 3.18 µM·h
- Cmax (in vivo; 10 mg/kg): 700 nM
- Tmax (in vivo; 10 mg/kg): 0.5 h
- AUC (in vivo; 50 mg/kg): 29.5 µM·h
- Cmax (in vivo; 50 mg/kg): 8200 nM
- Tmax (in vivo; 50 mg/kg): 0.5 h
- concentration at 20 h (in vivo; 50 mg/kg): 410 nM
- Cell Toxicity SF539, % at 10 μM (glioma derived (SF539) [1]): <30% at 10 μM
- Cell Toxicity HL60, % at 10 μM [2]: <30% at 10 μM
- Cell Toxicity CRL8155, % at 10 μM [3]: <30% at 10 μM
- Cell Toxicity HCC2998, % at 10 μM [4]: <30% at 10 μM
- Blood level, First Peak [5]: 50 ± 80 nM
- Blood level, Fourth D4 Peak [5]: 6600 ± 1600 nM
- Blood level, First Trough [5]: 0 ± 0 nM
- concentration at 17 h ([5]; blood): 0 nM
- AUC ([5]; in vivo): 20 µM·h
- Cmax ([5]; in vivo): 6640 nM
- Tmax ([5]; in vivo): 2 h
- AUC ([5]; in vivo, 10 mg/kg): 0.95 µM·h
- Cmax ([5]; in vivo, 10 mg/kg): 200 nM
- Tmax ([5]; in vivo, 10 mg/kg): 2.33 h
- AUC ([5]; in vivo, 50 mg/kg): 5.18 µM·h
- Cmax ([5]; in vivo, 50 mg/kg): 1100 nM
- Tmax ([5]; in vivo, 50 mg/kg): 2.67 h
- formation of oocysts in A. stephensi fed on treated mice [9]: completely blocked the formation of oocysts
- impact on asexual parasitaemia or gametocyte rates ([9]; mice, 10 mg/kg i.p.): no impact

SMILES: Nc1ncnc2c1c(-c1ccc3cc(OCc4ccccc4)ccc3c1)nn2CC1CCNCC1 [Compound 34, 3-(6-(benzyloxy)naphthalen-2-yl)-1-(piperidin-4-ylmethyl)-1H-pyrazolo[3,4-d]pyrimidin-4-amine]
- Observed HFF Toxicity (T at concentration) (human fibroblast): T at 100 μM
- IC50 (HckKD): 1.61 µM
- EC50 (PfCDPK1): 27.2 nM
- EC50 (PfCDPK4): 30.2 nM
- solubility [7, 12]: 23 µM (≈ 10.7 µg/mL)
- Cell Toxicity LD50 SF539 (glioma derived (SF539) [10]): 6 µM
- Cell Toxicity SF539, % at 10 μM (glioma derived (SF539) [1]): 104%
- Cell Toxicity HL60, % at 10 μM [2]: <30% at 10 μM
- Cell Toxicity CRL8155, % at 10 μM [3]: <30% at 10 μM
- Cell Toxicity HCC2998, % at 10 μM [4]: 30% at 10 μM

SMILES: Nc1nc2ccc(C(=O)c3ccccc3)cc2[nH]1 [Compound 92]
- IC50 (SrcKD; Table 9): > 10 µM
- IC50 (Abl3D): ~10 µM

SMILES: CCOc1ccc2cc(-c3nn(CC4CCN(C)CC4)c4ncnc(N)c34)ccc2c1 [Compound 150, 3-(6-ethoxynaphthalen-2-yl)-1-((1-methylpiperidin-4-yl)methyl)-1H-pyrazolo[3,4-d]pyrimidin-4-amine]
- Observed HFF Toxicity (T at concentration) (human fibroblast): T at 25 μM
- IC50 (SrcKD; Table 9): > 10 µM
- IC50 (AblKD): > 3 µM
- EC50 (PfCDPK4): 33.7 nM
- IC50 (PfCDPK4): 10 nM
- parasites in stool (qRT-PCR) at the end of treatment (C. parvum): not detected
- Cell Toxicity HL60, % at 10 μM [2]: <30% at 10 μM
- Cell Toxicity HL60, % at 30 μM ([2]; 30 μM): <30% at 30 μM
- Cell Toxicity CRL8155, % at 10 μM [3]: <30% at 10 μM
- Cell Toxicity CRL8155, % at 30 μM ([3]; 30 μM): <30% at 30 μM
- Blood level, First Peak [5]: 2100 ± 1200 nM
- Blood level, Fourth D4 Peak [5]: 8900 ± 3400 nM
- Blood level, First Trough [5]: 2000 ± 1600 nM
- Cmax ([5]; in vivo, 10 mg/kg): 800 nM
- Tmax ([5]; in vivo, 10 mg/kg): 2.15 h
- concentration at 17 h ([5]; in vivo): 6300 ± 1800 nM

SMILES: CC(C)(C)n1nc(-c2ccc3ccccc3c2)c2c(N)ncnc21 [NA-PP2, reference compound]
- formation of oocysts in A. stephensi fed on treated mice [9]: hundreds of oocysts per mosquito
